Consider 21 compounds from patent US20060194837A1, “Tetrahydroisoquinoline compounds” (priority 2004, published 2006).

Read-outs that look alike come from different tables or passages of the source.

For experiment [1], the target named is T1, human H3 receptor (Homo sapiens, UniProt Q9Y5N1).
T1 construct: expressed in transfected cells
The experiment can be described thus: H3 receptor binding (N-[3H]-α-methylhistamine displacement). Particulars: membranes of SK-N-MC cells expressing cloned human H3 receptor, 0.8 nM N-[3H]-α-methylhistamine, 60 min at 25° C.

Experiment [2] addresses T2, Rat SERT (Rattus norvegicus, UniProt P31652).
T2 construct: A rat brain without cerebellum (Zivic Laboratories, Inc.—Pittsburgh, Pa.) was homogenized; tissue Zivic Laboratories, Inc; host or cells: rat brain without cerebellum, membranes
Nature of the experiment: Rat brain SERT binding ([3H]-citalopram displacement). Conditions: rat brain membranes without cerebellum, 0.6 nM [3H]-citalopram, 60 min at 25° C.; read-out: Rat SERT Ki. As to the method: The supernatant was removed and re-centrifuged at 15,000 rpm for 30 min. […] Membranes were incubated with 0.6 nM [^3H]-Citalopram plus/minus test compounds for 60 min at 25° C. and harvested by rapid filtration over GF/C glass fiber filters (pretreated with 0.3% polyethylenimine) followed by four washes with ice-cold buffer.

The target of experiment [3] is T3, human SERT (Homo sapiens, UniProt P31645).
T3 construct: expressed in transfected cells; host or cells: HEK293 membranes
Nature of the experiment: Human SERT binding (3H-citalopram displacement). Particulars: HEK293 membranes expressing human SERT, rt 1 h. How it is done: Homogenized HEK293 (Human Embryonic Kidney) membranes expressing the human SERT were incubated with ^3H-citalopram (SERT) at rt for 1 h in 50 mM Tris, 120 mM NaCl, 5 mM KCl (pH 7.4). […] The membranes were washed and the radioactivity was counted as above.

Experiment [4] has as its target T1, human H3 receptor. The experiment can be described thus: Cyclic AMP accumulation (β-galactosidase reporter, Schild analysis). It is filed as cell-based. Particulars: histamine agonist, forskolin 5 μM, Schild regression of pEC50 values. How it is done: Sublines of SK-N-MC cells were created that expressed a reporter construct and the human H3 receptor. The reporter gene (β-galactosidase) is under the control of multiple cyclic AMP responsive elements. In 96-well plates, histamine was added directly to the cell media followed 5 min later by an addition of forskolin (5 μM final concentration). When appropriate, antagonists were added 10 min prior to agonist addition. After a 6-h incubation at 37° C., the media was aspirated and the cells washed with 200 μL of phosphate-buffered saline followed by a second aspiration. Cells were lysed with 25 μL 0.1× assay buffer (10 mM Na-phosphate, pH 8, 0.2 mM MgSO4, 0.01 mM MnCl2) and incubated at rt for 10 min. […] Color was developed using 25 μL of 1 mg/mL substrate solution (chlorophenolred β-D galactopyranoside; Roche Molecular Biochemicals, Indianapolis, In.).

[5] abbreviates: SK-N-MC cells expressing human H3 receptor and CRE-β-galactosidase reporter, read-out: pA2 (converted).
[6] abbreviates: pA2, SK-N-MC cells expressing human H3 receptor and CRE-β-galactosidase reporter.

T1 sequence (Q9Y5N1 whole entry): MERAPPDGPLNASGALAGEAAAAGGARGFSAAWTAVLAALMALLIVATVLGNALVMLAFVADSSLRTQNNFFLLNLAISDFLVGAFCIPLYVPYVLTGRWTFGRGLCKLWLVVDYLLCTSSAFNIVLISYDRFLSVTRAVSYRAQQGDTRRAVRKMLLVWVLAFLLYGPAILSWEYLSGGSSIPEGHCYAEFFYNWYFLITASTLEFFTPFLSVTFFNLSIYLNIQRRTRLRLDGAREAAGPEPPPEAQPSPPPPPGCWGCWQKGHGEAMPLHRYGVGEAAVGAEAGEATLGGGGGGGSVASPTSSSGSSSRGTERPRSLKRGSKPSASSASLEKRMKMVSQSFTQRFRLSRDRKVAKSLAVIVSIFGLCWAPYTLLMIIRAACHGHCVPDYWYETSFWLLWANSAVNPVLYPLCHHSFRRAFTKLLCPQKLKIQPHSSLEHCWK
T2 sequence (P31652 whole entry): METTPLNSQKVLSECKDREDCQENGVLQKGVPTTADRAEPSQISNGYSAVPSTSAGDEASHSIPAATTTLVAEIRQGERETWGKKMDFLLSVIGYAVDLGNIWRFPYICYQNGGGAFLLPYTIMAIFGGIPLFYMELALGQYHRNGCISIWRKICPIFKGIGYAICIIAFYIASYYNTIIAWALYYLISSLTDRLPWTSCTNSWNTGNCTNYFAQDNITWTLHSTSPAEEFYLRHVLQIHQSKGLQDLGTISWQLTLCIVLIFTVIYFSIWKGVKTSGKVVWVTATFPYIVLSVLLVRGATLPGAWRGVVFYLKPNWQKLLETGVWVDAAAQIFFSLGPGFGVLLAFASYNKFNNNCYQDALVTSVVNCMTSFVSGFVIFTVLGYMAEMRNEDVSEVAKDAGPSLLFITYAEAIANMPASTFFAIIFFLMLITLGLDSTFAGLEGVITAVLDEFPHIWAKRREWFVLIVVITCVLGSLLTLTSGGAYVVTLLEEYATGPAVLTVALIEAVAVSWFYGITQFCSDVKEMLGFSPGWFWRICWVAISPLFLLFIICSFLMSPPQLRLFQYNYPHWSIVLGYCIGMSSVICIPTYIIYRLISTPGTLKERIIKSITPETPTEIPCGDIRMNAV
T3 sequence (P31645 whole entry): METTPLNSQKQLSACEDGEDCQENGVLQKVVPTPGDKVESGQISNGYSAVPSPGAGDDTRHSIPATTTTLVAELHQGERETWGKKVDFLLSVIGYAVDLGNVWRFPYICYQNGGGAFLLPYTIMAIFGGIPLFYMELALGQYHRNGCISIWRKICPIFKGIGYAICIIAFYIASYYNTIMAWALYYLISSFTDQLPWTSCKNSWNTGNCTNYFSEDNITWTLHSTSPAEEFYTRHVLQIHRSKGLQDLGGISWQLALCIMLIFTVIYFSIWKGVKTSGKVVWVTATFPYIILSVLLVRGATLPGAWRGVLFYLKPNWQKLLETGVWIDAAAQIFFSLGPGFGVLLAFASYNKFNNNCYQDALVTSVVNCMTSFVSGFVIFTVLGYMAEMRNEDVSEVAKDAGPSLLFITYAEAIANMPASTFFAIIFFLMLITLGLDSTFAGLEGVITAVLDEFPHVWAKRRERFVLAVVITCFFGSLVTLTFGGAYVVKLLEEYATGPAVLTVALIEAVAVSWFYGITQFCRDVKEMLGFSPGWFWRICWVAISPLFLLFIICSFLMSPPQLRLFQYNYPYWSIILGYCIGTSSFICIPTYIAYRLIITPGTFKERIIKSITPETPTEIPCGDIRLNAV

For the compound `COc1ccc(C2CN(C)Cc3cc(OCC4CCN(C(C)C)CC4)ccc32)cc1` (stereo not drawn) [Example 83, 7-(1-Isopropyl-piperidin-4-ylmethoxy)-4-(4-methoxy-phenyl)-2-methyl-1,2,3,4-tetrahydro-isoquinoline], the inhibition constant (Ki) stood at 3 nM in experiment [1], 6 nM in experiment [2] and 5 nM in experiment [3]. Further, the Kb in experiment [4] (setting [5]) is 1.26 nM.
On to `CCN1Cc2cc(OCCCN3CCC(F)CC3)ccc2C(c2ccc(OC)cc2)C1` (stereo not drawn) [Example 146, 2-Ethyl-7-[3-(4-fluoro-piperidin-1-yl)-propoxy]-4-(4-methoxy-phenyl)-1,2,3,4-tetrahydro-isoquinoline], for which the inhibition constant (Ki) in experiment [1] turned out to be 3 nM; in experiment [2], 12 nM; in experiment [3] it was 12 nM. Besides, the Kb in experiment [4] (setting [5]) was 2 nM.
As to `COc1ccc(C2CN(C)Cc3cc(OCCCN4CCC(C#N)CC4)ccc32)cc1` (racemic) [Example 37, 1-{3-[4-(4-Methoxy-phenyl)-2-methyl-1,2,3,4-tetrahydro-isoquinolin-7-yloxy]-propyl}-piperidine-4-carbonitrile], the results for the Ki in experiment [1], in experiment [2] and in experiment [3] were 9 nM, 8 nM and 6 nM, respectively. Further, the Kb in experiment [4] (setting [5]) is 6.31 nM.
The like results for `COc1ccc(C2CN(C)Cc3cc(OCCCN4CCC(O)CC4)ccc32)cc1` (stereo not drawn) [Example 21, 1-{3-[4-(4-Methoxy-phenyl)-2-methyl-1,2,3,4-tetrahydro-isoquinolin-7-yloxy]-propyl}-piperidin-4-ol] were, in that order, 9 nM, 2 nM, 4 nM and 12.6 nM.
In the case of `C(#Cc1ccc2c(c1)CNCC2c1cccnc1)CCN1CCCCC1` (stereo not drawn) [Example 271, 7-(4-Piperidin-1-yl-but-1-ynyl)-4-pyridin-3-yl-1,2,3,4-tetrahydro-isoquinoline], the results for the Ki in experiment [1], in experiment [2] and in experiment [3] were 0.7 nM, 413 nM and 3000 nM, respectively. Moreover, in experiment [4] (setting [5]), the Kb was 0.251 nM.
The like results for `COc1ccc(C2CN(C)Cc3cc(OCCCN4CC[C@@H](N(C)C)C4)ccc32)cc1` (stereo in doubt) [Example 10, (1-{3-[4-(4-Methoxy-phenyl)-2-methyl-1,2,3,4-tetrahydro-isoquinolin-7-yloxy]-propyl}-pyrrolidin-3-yl)-dimethyl-amine] were, in that order, 1 nM, 4 nM, 5 nM and 3.98 nM.
In the case of `COc1ccc(C2CN(C)Cc3cc(OC[C@H]4CN(C(C)C)CCO4)ccc32)cc1` (single isomer, unassigned) [Example 256B, 7-(4-Isopropyl-morpholin-2R-ylmethoxy)-4-(4-methoxy-phenyl)-2-methyl-1,2,3,4-tetrahydro-isoquinoline], the Ki is 7 nM in experiment [1], 8 nM in experiment [2] and 4 nM in experiment [3]. Also, the Kb in experiment [4] (setting [5]) was 3.98 nM.
Consider `COc1ccc(C2CN(C)Cc3cc(OCCCN4CCOCC4)ccc32)cc1` (stereo not drawn) [Example 9, 4-(4-Methoxy-phenyl)-2-methyl-7-(3-morpholin-4-yl-propoxy)-1,2,3,4-tetrahydro-isoquinoline], for which the inhibition constant (Ki) in experiment [1] came to 3 nM; in experiment [2] it was 5 nM; in experiment [3], 6 nM. The Kb in experiment [4] (setting [5]) was 2.51 nM.
The like results for `CN1Cc2cc(OCCCN3CCCCC3)ccc2C(c2ccsc2)C1` (stereo not drawn) [Example 57, 2-Methyl-7-(3-piperidin-1-yl-propoxy)-4-thiophen-3-yl-1,2,3,4-tetrahydro-isoquinoline] were, in that order, 0.9 nM, 22 nM, 53 nM and 0.1 nM.
As for `c1cncc(C2CNCc3cc(CCCCN4CCCCC4)ccc32)c1` (stereo not drawn) [Example 272, 7-(4-Piperidin-1-yl-butyl)-4-pyridin-3-yl-1,2,3,4-tetrahydro-isoquinoline], the inhibitory constant (Ki) in experiment [1] is 3 nM; in experiment [2], 540 nM; in experiment [3], 3000 nM. Moreover, the Kb in experiment [4] (setting [5]) is 3.16 nM.
For the compound `CCN(CC)CCCOc1ccc2c(c1)CN(C)CC2c1ccc(OC)cc1` (stereo not drawn) [Example 3, Diethyl-{3-[4-(4-methoxy-phenyl)-2-methyl-1,2,3,4-tetrahydro-isoquinolin-7-yloxy]-propyl}-amine], the inhibition constant (Ki) in experiment [1] was found to be 0.7 nM; in experiment [2], 3 nM; in experiment [3], 4 nM. In experiment [4] (setting [6]), this compound gave a Kb of 0.398 nM.
In the case of `COc1ccc(C2CN(C)Cc3cc(C#CCCN4CCCCC4)ccc32)cc1` (stereo not drawn) [Example 275, 4-(4-Methoxy-phenyl)-2-methyl-7-(4-piperidin-1-yl-but-1-ynyl)-1,2,3,4-tetrahydro-isoquinoline], the inhibition constant (Ki) in experiment [1] amounted to 3 nM; in experiment [2] it was 5 nM; in experiment [3] it was 4 nM. Moreover, the Kb in experiment [4] (setting [5]) was 1.26 nM.
The like results for `CN1Cc2cc(CCCCN3CCCCC3)ccc2C(c2cccnc2)C1` (stereo not drawn) [Example 273, 2-Methyl-7-(4-piperidin-1-yl-butyl)-4-pyridin-3-yl-1,2,3,4-tetrahydro-isoquinoline] were, in that order, 5 nM, 47 nM, 158 nM and 2 nM.
For the compound `COc1ccc(C2CN(C)Cc3cc(OCCCN4CCC(C#N)CC4)ccc32)cc1` (single isomer, unassigned) [Example 37B, 1-{3-[4-(4-Methoxy-phenyl)-2-methyl-1,2,3,4-tetrahydro-isoquinolin-7-yloxy]-propyl}-piperidine-4-carbonitrile], the results for the Ki in experiment [1], in experiment [2] and in experiment [3] were 6 nM, 4 nM and 6 nM, respectively. Moreover, the Kb in experiment [4] (setting [5]) was 5.01 nM.
As to `CSc1ccc(C2CN(C)Cc3cc(OCC4CN(C(C)C)C4)ccc32)cc1` (stereo not drawn) [Example 236, 7-(1-Isopropyl-azetidin-3-ylmethoxy)-2-methyl-4-(4-methylsulfanyl-phenyl)-1,2,3,4-tetrahydro-isoquinoline], the Ki came to 10 nM in experiment [1], 6 nM in experiment [2] and 9 nM in experiment [3]. The Kb in experiment [4] (setting [5]) is 7.94 nM.
As to `CN1Cc2cc(OCCCN3CCC(F)CC3)ccc2C(c2ccc(OC(F)F)cc2)C1` (stereo not drawn) [Example 50, 4-(4-Difluoromethoxy-phenyl)-7-[3-(4-fluoro-piperidin-1-yl)-propoxy]-2-methyl-1,2,3,4-tetrahydro-isoquinoline], the results for the Ki in experiment [1], in experiment [2] and in experiment [3] were 8 nM, 3 nM and 3 nM, respectively. The compound further showed a Kb in experiment [4] (setting [6]) of 3.98 nM.
Turning to `COc1ccc(C2CN(C)Cc3cc(OCCCN4CCC(F)(F)CC4)ccc32)cc1` (stereo not drawn) [Example 8, 7-[3-(4,4-Difluoro-piperidin-1-yl)-propoxy]-4-(4-methoxy-phenyl)-2-methyl-1,2,3,4-tetrahydro-isoquinoline], the Ki in experiment [1] turned out to be 4 nM; in experiment [2], 6 nM; in experiment [3] it was 8 nM. Moreover, in experiment [4] (setting [5]), the Kb was 5.01 nM.
In the case of `COc1cccc(C2CN(C)Cc3cc(OCCCN4CCC(F)CC4)ccc32)c1` (single isomer, unassigned) [Example 45A, 7-[3-(4-Fluoro-piperidin-1-yl)-propoxy]-4-(3-methoxyphenyl)-2-methyl-1,2,3,4-tetrahydro-isoquinoline], the results for the inhibition constant (Ki) in experiment [1], in experiment [2] and in experiment [3] were 2 nM, 9 nM and 7 nM, respectively. The Kb in experiment [4] (setting [5]) is 1.26 nM.
In the same order, the values of `COc1cccc(C2CN(C)Cc3cc(OCCCN4CCC(F)CC4)ccc32)c1` (racemic) [Example 44, 7-[3-(4-Fluoro-piperidin-1-yl)-propoxy]-4-(3-methoxyphenyl)-2-methyl-1,2,3,4-tetrahydro-isoquinoline] are 2 nM, 4 nM, 7 nM and 0.794 nM.
Consider `CN1Cc2cc(OCCCN3CCCCC3)ccc2C(c2cccnc2)C1` (stereo not drawn) [Example 59, 2-Methyl-7-(3-piperidin-1-yl-propoxy)-4-pyridin-3-yl-1,2,3,4-tetrahydro-isoquinoline], for which the Ki turned out to be 1 nM in experiment [1], 48 nM in experiment [2] and 160 nM in experiment [3]. The Kb in experiment [4] (setting [5]) is 0.126 nM.
In the case of `COc1ccc(C2CN(C)Cc3cc(OCCCN4CCCC(O)C4)ccc32)cc1` (mixture of isomers) [Example 20, 1-{3-[4-(4-Methoxy-phenyl)-2-methyl-1,2,3,4-tetrahydro-isoquinolin-7-yloxy]-propyl}-piperidin-3-ol], the Ki in experiment [1] was determined as 2 nM; in experiment [2], 4 nM; in experiment [3] it was 3 nM. Also, the Kb in experiment [4] (setting [5]) was 1 nM.
